Results as given in ChEMBL document CHEMBL3769350, “Synthesis and biological evaluation of piperazine group-linked bivalent -carbolines as potential antitumor agents” (Medchemcomm, 2015).
The source made the active and inactive calls. The calls are words filed in the database; no cut-off is given here.

Key:
769-P = assay: Cytotoxicity against human 769-P cells by MTT assay; type: functional, cell-based
MCF7 = assay: Cytotoxicity against human MCF7 cells by MTT assay; type: functional, cell-based
[1] = Cytotoxicity against human SKOV3 cells by MTT assay; type: functional, cell-based; conditions: SK-OV-3
CWR22R = assay: Cytotoxicity against human 22Rv1 cells by MTT assay; type: functional, cell-based
[2] = Cytotoxicity against mouse LLC cells by MTT assay; type: functional, cell-based; conditions: Lewis lung carcinoma
[3] = Cytotoxicity against human ECA109 cells by MTT assay; type: functional, cell-based; conditions: ECa-109
[4] = Cytotoxicity against human BGC823 cells by MTT assay; type: functional, cell-based; conditions: BGC-823
A-375 = assay: Cytotoxicity against human A375 cells by MTT assay; type: functional, cell-based
HT-29 = assay: Cytotoxicity against human HT-29 cells by MTT assay; type: functional, cell-based
HepG2 = assay: Cytotoxicity against human HepG2 cells by MTT assay; type: functional, cell-based
Chorioallantoic membrane [5] = assay: Antiangiogenic activity in chicken chorioallantoic membrane at 200 uM after 48 hrs by microscopic analysis; type: functional; conditions: Gallus gallus
Chorioallantoic membrane [6] = assay: Antiangiogenic activity in chicken chorioallantoic membrane at 50 to 200 uM after 48 hrs by microscopic analysis; type: functional; conditions: Gallus gallus

SMILES | IC50 (769-P) [µM] | IC50 (MCF7) [µM] | IC50 [1] [µM] | IC50 (CWR22R) [µM] | IC50 [2] [µM] | IC50 [3] [µM] | IC50 [4] [µM] | IC50 (A-375) [µM] | IC50 (HT-29) [µM] | IC50 (HepG2) [µM] | inhibition (Chorioallantoic membrane [5]) | inhibition (Chorioallantoic membrane [6])
c1ccc(Cn2c3ccccc3c3cc(CN4CCN(Cc5cc6c7ccccc7n(Cc7ccccc7)c6c(-c6ccccc6)n5)CC4)nc(-c4ccccc4)c32)cc1 | > 100 | > 100 | > 100 | > 100 | > 100 | > 100 | > 100 | > 100 | > 100 | > 100 | – | –
CCCCn1c2ccccc2c2cc(CN3CCN(Cc4cc5c6ccccc6n(CCCC)c5cn4)CC3)ncc21 | 38.2 | 29.2 | 11.3 | 43.9 | 2.36 | 26.4 | 9.52 | 16.8 | 17.1 | 15.2 | – | –
c1ccc(Cn2c3ccccc3c3cc(CN4CCN(Cc5cc6c7ccccc7n(Cc7ccccc7)c6cn5)CC4)ncc32)cc1 | > 100 | > 100 | 46.5 | > 100 | 79.8 | > 100 | > 100 | > 100 | 36.8 | 65.4 | – | –
COc1ccc(/C=C\c2cc(OC)c(OC)c(OC)c2)cc1OP(=O)(O)O | – | – | – | – | – | – | – | – | – | – | Active | –
CCn1c2ccccc2c2cc(CN3CCN(Cc4cc5c6ccccc6n(CC)c5c(-c5ccccc5)n4)CC3)nc(-c3ccccc3)c21 | 29.6 | > 100 | 19.8 | 24.9 | 14 | > 100 | 38.8 | 9.92 | 17.6 | > 100 | – | –
c1ccc(CCCn2c3ccccc3c3cc(CN4CCN(Cc5cc6c7ccccc7n(CCCc7ccccc7)c6c(-c6ccccc6)n5)CC4)nc(-c4ccccc4)c32)cc1 | > 100 | > 100 | > 100 | > 100 | > 100 | > 100 | > 100 | > 100 | > 100 | > 100 | – | –
CCCCn1c2ccccc2c2cc(CN3CCN(Cc4cc5c6ccccc6n(CCCC)c5c(-c5ccc(OC)c(OC)c5)n4)CC3)nc(-c3ccc(OC)c(OC)c3)c21 | 10 | 14.5 | 25.7 | 19.5 | 9.78 | 32.4 | 6.21 | 15.5 | 11.8 | 17 | – | –
Cc1nc(CN2CCN(Cc3cc4c5ccccc5n(CC(C)C)c4c(C)n3)CC2)cc2c3ccccc3n(CC(C)C)c12 | 12.7 | 7.16 | 16 | 12.5 | 7.68 | 14.3 | 10.8 | 13 | 11.3 | 9.66 | – | Active
COc1cc(-c2nc(CN3CCN(Cc4cc5c6ccccc6n(CCCc6ccccc6)c5c(-c5cc(OC)c(OC)c(OC)c5)n4)CC3)cc3c4ccccc4n(CCCc4ccccc4)c23)cc(OC)c1OC | > 100 | > 100 | > 100 | > 100 | > 100 | > 100 | > 100 | > 100 | > 100 | > 100 | – | –
c1ccc(CCCn2c3ccccc3c3cc(CN4CCN(Cc5cc6c7ccccc7n(CCCc7ccccc7)c6cn5)CC4)ncc32)cc1 | 3.02 | 7.62 | 5.51 | 5.32 | 5.15 | 24.6 | 7.62 | 8.35 | 18.7 | 8.95 | – | –
CCn1c2ccccc2c2cc(CN3CCN(Cc4cc5c6ccccc6n(CC)c5c(-c5ccc(OC)c(OC)c5)n4)CC3)nc(-c3ccc(OC)c(OC)c3)c21 | 61.1 | 27.3 | 32.7 | 42.3 | 9.68 | 68.5 | 19.8 | 37.3 | 34.3 | 27.2 | – | –
COc1ccc(-c2nc(CN3CCN(Cc4cc5c6ccccc6n(CCCc6ccccc6)c5c(-c5ccc(OC)cc5)n4)CC3)cc3c4ccccc4n(CCCc4ccccc4)c23)cc1 | > 100 | > 100 | > 100 | > 100 | > 100 | > 100 | > 100 | > 100 | > 100 | > 100 | – | –
COc1cc(-c2nc(CN3CCN(Cc4cc5c([nH]c6ccccc65)c(-c5cc(OC)c(OC)c(OC)c5)n4)CC3)cc3c2[nH]c2ccccc23)cc(OC)c1OC | > 100 | > 100 | > 100 | > 100 | > 100 | > 100 | > 100 | > 100 | > 100 | > 100 | – | –
COc1ccc(-c2nc(CN3CCN(Cc4cc5c6ccccc6n(Cc6ccccc6)c5c(-c5ccc(OC)c(OC)c5)n4)CC3)cc3c4ccccc4n(Cc4ccccc4)c23)cc1OC | > 100 | > 100 | > 100 | > 100 | 36.4 | > 100 | > 100 | > 100 | > 100 | > 100 | – | –
CCn1c2ccccc2c2cc(CN3CCN(Cc4cc5c6ccccc6n(CC)c5cn4)CC3)ncc21 | 64.3 | 82.8 | 24.4 | 52.3 | 13.8 | > 100 | 68.6 | 49.9 | 32.8 | > 100 | – | –
COc1ccc(-c2nc(CN3CCN(Cc4cc5c6ccccc6n(Cc6ccccc6)c5c(-c5ccc(OC)cc5)n4)CC3)cc3c4ccccc4n(Cc4ccccc4)c23)cc1 | > 100 | > 100 | > 100 | > 100 | 40.4 | > 100 | > 100 | > 100 | > 100 | > 100 | – | –
Fc1ccc(Cn2c3ccccc3c3cc(CN4CCN(Cc5cc6c7ccccc7n(Cc7ccc(F)cc7)c6cn5)CC4)ncc32)cc1 | 29 | 72.8 | 8.43 | 60.6 | 15.9 | 24.7 | 85.6 | 46 | 18.3 | 76.3 | – | –
Cn1c2ccccc2c2cc(CN3CCN(Cc4cc5c6ccccc6n(C)c5c(-c5ccccc5)n4)CC3)nc(-c3ccccc3)c21 | > 100 | > 100 | > 100 | 54.3 | 34.5 | > 100 | > 100 | 40.9 | > 100 | > 100 | – | –
COc1ccc(-c2nc(CN3CCN(Cc4cc5c6ccccc6n(C)c5c(-c5ccc(OC)cc5)n4)CC3)cc3c4ccccc4n(C)c23)cc1 | > 100 | > 100 | 57.8 | 47.8 | 69 | 68.5 | 56.3 | 45.7 | 29 | 55 | – | –
COc1ccc(-c2nc(CN3CCN(Cc4cc5c([nH]c6ccccc65)c(-c5ccc(OC)cc5)n4)CC3)cc3c2[nH]c2ccccc23)cc1 | > 100 | > 100 | > 100 | > 100 | > 100 | > 100 | > 100 | > 100 | > 100 | > 100 | – | –
Cc1nc(CN2CCN(Cc3cc4c5ccccc5n(Cc5cccc(Cl)c5)c4c(C)n3)CC2)cc2c3ccccc3n(Cc3cccc(Cl)c3)c12 | 45.8 | 43.7 | 51.4 | 40.8 | 12 | 57.6 | 40.8 | 32.4 | 25.2 | 38.1 | – | –
CCCCn1c2ccccc2c2cc(CN3CCN(Cc4cc5c6ccccc6n(CCCC)c5c(-c5cc(OC)c(OC)c(OC)c5)n4)CC3)nc(-c3cc(OC)c(OC)c(OC)c3)c21 | 15.6 | 12.5 | 7.11 | 6.82 | 19.8 | 18.3 | 26.6 | 36 | 13.5 | 7.26 | – | –
Cc1nc(CN2CCN(Cc3cc4c5ccccc5n(C)c4c(C)n3)CC2)cc2c3ccccc3n(C)c12 | > 100 | > 100 | 31 | 86.3 | 61.8 | > 100 | 78.5 | > 100 | > 100 | > 100 | – | –
COc1cc(-c2nc(CN3CCN(Cc4cc5c6ccccc6n(C)c5c(-c5cc(OC)c(OC)c(OC)c5)n4)CC3)cc3c4ccccc4n(C)c23)cc(OC)c1OC | > 100 | 65.6 | 18.9 | > 100 | 39 | 26.3 | 45.3 | 64.2 | > 100 | > 100 | – | –
COc1ccc(-c2nc(CN3CCN(Cc4cc5c6ccccc6n(CCCc6ccccc6)c5c(-c5ccc(OC)c(OC)c5)n4)CC3)cc3c4ccccc4n(CCCc4ccccc4)c23)cc1OC | > 100 | > 100 | > 100 | > 100 | > 100 | > 100 | > 100 | > 100 | > 100 | > 100 | – | –
CCCCn1c2ccccc2c2cc(CN3CCN(Cc4cc5c6ccccc6n(CCCC)c5c(-c5ccc(OC)cc5)n4)CC3)nc(-c3ccc(OC)cc3)c21 | 16.6 | 20.6 | 24.6 | 27.6 | 27.4 | 24.7 | 28.8 | 19.6 | 11.8 | 25.7 | – | –
